According to PubChem BioAssay (NCI):
Values joined by “and” are separate entries in the source; they are usually repeats but may differ in a detail not shown here. Equal values may be shown once.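 1) Cells in 96-well plates. 2) Compound, 48 h, 5 concentrations. 3) Linear interpolation between surrounding doses. 4) Unreached endpoint = highest concentration. GI50: concentration for 50% inhibition of growth. TGI marks complete inhibition of growth.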

Legend:
Test in all cases: NCI anticancer screen, dose series, 48 h
MDA-MB-435 = tested on: MDA-MB-435
OVCAR-5 ovarian = tested on: OVCAR-5 ovarian
T-47D breast = tested on: T-47D breast
HCC-2998 colon = tested on: HCC-2998 colon
UO-31 renal = tested on: UO-31 renal
HL-60(TB) leukemia = tested on: HL-60(TB) leukemia
SW-620 colon = tested on: SW-620 colon
COLO 205 colon = tested on: COLO 205 colon
SNB-75 CNS = tested on: SNB-75 CNS
A549 NSCLC = tested on: A549 NSCLC

Row | SMILES | GI50 (MDA-MB-435) | TGI (MDA-MB-435) | GI50 (OVCAR-5 ovarian) | TGI (OVCAR-5 ovarian) | GI50 (T-47D breast) | TGI (T-47D breast) | GI50 (HCC-2998 colon) [µM] | TGI (HCC-2998 colon) | GI50 (UO-31 renal) | TGI (UO-31 renal) | GI50 (HL-60(TB) leukemia) | TGI (HL-60(TB) leukemia) | GI50 (SW-620 colon) | TGI (SW-620 colon) | GI50 (COLO 205 colon) | TGI (COLO 205 colon) | GI50 (SNB-75 CNS) | TGI (SNB-75 CNS) | GI50 (A549 NSCLC) | TGI (A549 NSCLC)
1 | CN1CCN(Cc2ccc(NC(=O)c3nc4ccc5[nH]ncc5c4c4c3CCC4)cc2C(F)(F)F)CC1 | 0.926 µM | 1.71 µM | 0.994 µM | 2.41 µM | 1.07 µM | 2.84 µM | 0.83 | 1.65 µM | 0.728 µM | 1.38 µM | 1.06 µM | 2.28 µM | 0.975 µM | 2.03 µM | 7.27 µM | 14.7 µM | 4.81 µM | 10.8 µM | 0.92 µM | 1.83 µM
2 | O=C(NNc1ccccc1)OCc1ccccc1 | 4.13 µM | > 100 µM | 8.05 µM | > 100 µM | 9.86 µM | > 100 µM | 17.6 | > 100 µM | 2.88 µM | 37 µM | 3.55 µM | 58.7 µM | 2.14 µM | > 100 µM | 17 µM | 46.4 µM | > 100 µM | > 100 µM | 9.18 µM | > 100 µM
3 | CC[N+]1(C)CCC(O)(c2ccccc2)C(C(=O)c2ccccc2)C1 (stereo not drawn) |  | 34.2 µM |  | 35.5 µM |  | 39.7 µM |  | 49.8 µM |  | 33.6 µM |  | 15.9 µM |  | 4.58 µM |  | 36.7 µM |  | 24.3 µM |  | 27.9 µM
4 | CC1(C)CC(=O)c2c(ccc(C(=O)C[C@H](N)CO)c2N)O1 | 15.3 µM and 4.47 µM | 17.5 µM and > 33.3 µM | > 33.3 µM | > 33.3 µM | 5.94 µM and 3.52 µM | 17.5 µM and > 33.3 µM |  | 17.5 µM and 12 µM | 1.73 µM and 0.409 µM | 17.5 µM and > 33.3 µM | 8.45 µM and 6.34 µM | 17.5 µM and > 33.3 µM | 0.647 µM and 0.117 µM | 17.5 µM and > 33.3 µM | 4.92 µM and 2.07 µM | 17.5 µM and > 33.3 µM | > 17.5 µM and 3.1 µM | > 33.3 µM | 7 µM and 7.1 µM | 17.5 µM and > 33.3 µM
5 | COc1ccc2[nH]c(=O)c(/C=C/C(=O)/C=C/c3ccc(O)c(OC)c3)cc2c1 | 0.301 µM | 1.3 µM | 1.88 µM | 3.66 µM | 2.63 µM | 13.9 µM | 1.97 | 3.64 µM | 1.47 µM | 2.79 µM | 2.24 µM | > 100 µM | 1.13 µM | 3.33 µM | 1.6 µM | 3.81 µM | 2.96 µM | 14.4 µM | 2.24 µM | 6.35 µM
6 | Cc1ccc2c(Nc3cccc(Cl)c3F)ncc(NC(=O)c3csc4c(N)ncnc34)c2c1 | 0.326 µM | > 100 µM | 0.137 µM | > 100 µM | > 100 µM | > 100 µM | 0.281 | > 100 µM | 0.291 µM | > 100 µM | 0.0656 µM | > 100 µM | 1.21 µM | > 100 µM | 0.0492 µM | > 100 µM | > 100 µM | > 100 µM | > 73.5 µM | > 100 µM
7 | O=C(O)c1ccc(NCc2nc3cc4ccccc4cc3[nH]2)cc1 |  | > 100 µM |  | > 100 µM |  | > 100 µM |  | > 100 µM |  | > 100 µM |  | > 54.8 µM |  | > 100 µM |  | > 100 µM |  | > 100 µM |  | > 100 µM
8 | C/C(=N\NC(=O)c1ccccc1O)c1cccc(/C(C)=N/NC(=O)c2ccccc2O)n1 | 0.767 µM | > 100 µM | 10.8 µM and > 95.7 µM | 49.5 µM and > 100 µM | 2.3 µM | > 100 µM | 0.489 | 11.5 µM and > 58.9 µM |  | 52.5 µM and > 57.4 µM | 0.784 µM and 0.504 µM |  | 0.632 µM | > 100 µM |  | > 100 µM | 23 µM | 33.5 µM and > 61.9 µM | > 70.8 µM | > 100 µM
9 | Nc1ncnc2c(C3OC(CO)C(O)C3O)[nH]nc12 (stereo not drawn) | 0.356 µM | 8.42 µM | 0.0727 µM | 3.58 µM and 8.57 µM | 0.0308 µM | 1.57 µM | 0.0575 | 3.11 µM and 1.31 µM | 0.0619 µM |  | 0.0142 µM | 0.111 µM | 0.0592 µM | 3.31 µM and 9.17 µM | 2.99 µM | 15.7 µM and 11.7 µM |  | 5.29 µM and 1.25 µM |  | 9.43 µM
